From US11412737B2, “Mixtures of beflubutamid or optically enriched forms thereof with a second herbicide” (FMC Corporation, priority 2016, dated 2022)
Where “and” joins values, the source holds several entries; their conditions need not be identical. Equal entries are not always repeated.

Columns and labels:
Assay in all cases: pre-emergence test, weed control
Conditions in all cases: pre-emergent, 28 DAT; rate g ai/ha by row: r5 94, r6 125, r7 250, r8 3.28, r9 6.56, r10 13.1, r11 94+3.28, r12 94+6.56, r13 94+13.1, r14 125+3.28, r15 125+6.56, r16 125+13.1
[1] = system: Common lambsquarters (CHEAL); format: in vivo, Chenopodium album
Protocol: (§1) Test compositions containing the test compounds were diluted with water to provide the appropriate test rate concentrations.
(§2) For pre-emergence testing, four disposable fiber flats (6 inch by 10 inch) for each rate of application of each herbicide solution were filled with top soil, to which seeds of each species were planted in furrows made by a template pressed on the top of the soil. The furrows were covered with soil after planting the seed and were watered well before application of the test compounds.
(§3) Fiber flats designated for treatment were placed in a spray chamber having a static platform and a movable sprayer and the height of the spray nozzle was 10.5 inches above the soil level. Once the sprayer was calibrated using water for spray volume of 30 gallons per acre, flats were sprayed with sprayer at a speed to receive a coverage equivalent of 30 gallons per acre. The application rates are those shown in the Tables below for the individual herbicidal solutions and the herbicide compositions of this invention. The pre-emergence flats were immediately placed in the greenhouse and watered lightly after treatment. Thereafter they were regularly watered and fertilized for the duration of the test.
(§4) The control of weeds was evaluated in each experimental test at 21 for wheat and 28 days after treatment (DAT) for all species. Data were analyzed using Minitab software at 95% confidence interval. The results, shown as an average of the replications, were compared with results observed in untreated control flats in the same tests. Percent control was determined by a method similar to the 0 to 100 rating system disclosed in “Research Methods in Weed Science,” 2nd ed., B. Truelove, Ed.; Southern Weed Science Society; Auburn University, Auburn, Ala., 1977. The rating system is as follows in Table 1.

Kochia (KCHSC) = format: in vivo
Protocol: as §1, §2, §3, §4

Rice flatsedge (CYPIR) = format: in vivo
Protocol: as §1, §2, §3, §4

## COC(=O)c1c(Cl)nn(C)c1S(=O)(=O)NC(=O)Nc1nc(OC)cc(OC)n1 [Halosulfuron-methyl]
[1]
  percentage of weed control, Common lambsquarters CHEAL: 86% and 56% and 90%
Kochia (KCHSC)
  percentage of weed control, Kochia KCHSC: 66% and 38% and 40%
Rice flatsedge (CYPIR)
  percentage of weed control, Rice flatsedge CYPIR: 95% and 71% and 99%
